Reference: patent US5773573A, “HIV peptides” (priority 1994, dated 1998)
Residues, ends and D or L forms follow the SMILES beside them.

Experiment: White cell and T cell subset counts (CD4, CD8, NK) in HIV infected patient given HEP1
Assay type: in vivo, human
Details: patient three
Method: The objective of this study was to determine in an HIV infected patient if the induction of immunological tolerance to HEP1 could reduce immune activation and HIV infection. The design of the first clinical experiment was to orally administer HEP1 to the patient in daily 10 mg doses (the lower end of the preferred dose range). This was then followed approximately three months later with a subcutaneous administration of HEP1 at a higher dose of 140 mg. To assess the therapeutic benefit of HEP1, the following disease progression markers were measured by taking blood samples before, during and after each trial and determining: HIV levels by a p24 antigen assay, HIV infectivity by a cellular TCID assay and immune activation by quantitating levels of various lymphocytes.
T cell subsets were measured by adding a whole blood sample to a 4.5 ml tube containing EDTA and staining with monoclonal antibodies to CD3, CD4 and CD8. The percentage of T cells in Peripheral Blood Lymphocytes were determined by flow-cytometric procedures. The numbers of CD4 and CD8 T cells were determined by obtaining total and differential white-cell counts and multiplying by the appropriate factor obtained on flow cytometry.
The following markers of HIV disease progression were assayed: p24Ag (the concentration of HIV p24 protein in picogram/ml in the blood), TCID (the infectivity of the HIV in the cells of blood sample measured by an in vitro cell culture assay in which a serial dilution of the sample was mixed with activated uninfected PBMC and the level of HIV infection determined by p24Ag assay), total white count (immune activation measured by the number of white cells per mm^3), CD4 (the number of CD4 positive cells per mm^3), CD8 (the number of CD8 positive cells per mm^3), NK (the number of Natural Killer cells per mm^3), Lymphocytes (the number of cells per mm^3), Monocytes (the number of cells per mm^3), and Granulocytes (the number of cells per mm^3). Normalised data was calculated by dividing each data point by the value of its data series on day 1 of the trail and multiplying by 100.

[1] = oral HEP1 10 mg daily day 2-22, day-69, before treatment
[2] = orally administered HEP1 10 mg daily
[3] = single subcutaneous HEP1 dose on day 1, day 1*, four hours after injection
[4] = single subcutaneous HEP1 dose on day 1, day 1, before injection
[5] = single subcutaneous HEP1 dose on day 1, day 6, after injection
[6] = single subcutaneous HEP1 dose on day 1, day-7, before treatment
[7] = single subcutaneous HEP1 dose on day 1, day-56, before treatment
[8] = single subcutaneous HEP1 dose on day 1, day-91, end of oral study
[9] = subcutaneous administration of one larger dose of HEP1

SMILES: CC(C)[C@H](NC(=O)[C@@H](NC(=O)[C@H](CCC(=O)O)NC(=O)[C@H](CCCNC(=N)N)NC(=O)[C@H](CCCNC(=N)N)NC(=O)[C@H](CCCCN)NC(=O)[C@H](CCCCN)NC(=O)[C@H](CCC(=O)O)NC(=O)[C@@H](N)[C@@H](C)O)[C@@H](C)O)C(=O)N[C@@H](CCC(=O)O)C(=O)N[C@@H](CCCNC(=N)N)C(=O)N[C@@H](CCC(=O)O)C(=O)N[C@@H](CCCCN)C(=O)N[C@@H](CCC(=O)O)C(=O)O [HEP1, NH2 ThrGluLysLysArgArgGluThrValGluArgGluLysGluCOOH] (H-TEKKRRETVEREKE-OH)
- NK, normalised data (day 1 = 100) [1]: 67
- White count [1]: 7900 cells per mm^3
- White count, normalised data (day 1 = 100) [1]: 96
- CD4 count, course [2]: no significant increase
- CD8, course [2]: increased during treatment
- total white cell count, course (immune activation) [2]: fell during and after treatment and fall
- % Granulocytes [3]: 55%
- % Granulocytes, normalised data (day 1 = 100) [3]: 80
- % Lymphocytes [3]: 33%
- % Lymphocytes, normalised data (day 1 = 100) [3]: 142
- % Monocytes [3]: 11%
- % Monocytes, normalised data (day 1 = 100) [3]: 138
- CD4 [3]: 120 cells per mm^3
- CD4, normalised data (day 1 = 100) [3]: 150
- CD8 [3]: 1130 cells per mm^3
- CD8, normalised data (day 1 = 100) [3]: 128
- Granulocytes [3]: 2530 cells per mm^3
- Granulocytes, normalised data (day 1 = 100) [3]: 66
- Lymphocytes [3]: 1520 cells per mm^3
- Lymphocytes, normalised data (day 1 = 100) [3]: 118
- Monocytes [3]: 510 cells per mm^3
- Monocytes, normalised data (day 1 = 100) [3]: 113
- NK [3]: 30 cells per mm^3
- NK, normalised data (day 1 = 100) [3]: 267
- White count [3]: 4600 cells per mm^3
- White count, normalised data (day 1 = 100) [3]: 82
- % Granulocytes [4]: 69%
- % Granulocytes, normalised data (day 1 = 100) [4]: 100
- % Lymphocytes [4]: 23.3%
- % Lymphocytes, normalised data (day 1 = 100) [4]: 100
- % Monocytes [4]: 8%
- % Monocytes, normalised data (day 1 = 100) [4]: 100
- CD4 [4]: 80 cells per mm^3
- CD4, normalised data (day 1 = 100) [4]: 100
- CD8 [4]: 880 cells per mm^3
- CD8, normalised data (day 1 = 100) [4]: 100
- Granulocytes [4]: 3860 cells per mm^3
- Granulocytes, normalised data (day 1 = 100) [4]: 100
- Lymphocytes [4]: 1290 cells per mm^3
- Lymphocytes, normalised data (day 1 = 100) [4]: 100
- Monocytes [4]: 450 cells per mm^3
- Monocytes, normalised data (day 1 = 100) [4]: 100
- NK [4]: 30 cells per mm^3
- NK, normalised data (day 1 = 100) [4]: 100
- White count [4]: 5600 cells per mm^3
- White count, normalised data (day 1 = 100) [4]: 100
- % Lymphocytes [5]: 22.2%
- CD4 [5]: 80 cells per mm^3
- CD4, normalised data (day 1 = 100) [5]: 100
- CD8 [5]: 780 cells per mm^3
- CD8, normalised data (day 1 = 100) [5]: 89
- White count [5]: 5400 cells per mm^3
- White count, normalised data (day 1 = 100) [5]: 96
- % Granulocytes [6]: 81%
- % Granulocytes, normalised data (day 1 = 100) [6]: 117
- % Lymphocytes [6]: 12.9%
- % Lymphocytes, normalised data (day 1 = 100) [6]: 55
- % Monocytes [6]: 7%
- % Monocytes, normalised data (day 1 = 100) [6]: 88
- CD4 [6]: 70 cells per mm^3
- CD4, normalised data (day 1 = 100) [6]: 88
- CD8 [6]: 670 cells per mm^3
- CD8, normalised data (day 1 = 100) [6]: 76
- Granulocytes [6]: 6640 cells per mm^3
- Granulocytes, normalised data (day 1 = 100) [6]: 172
- Lymphocytes [6]: 980 cells per mm^3
- Lymphocytes, normalised data (day 1 = 100) [6]: 76
- Monocytes [6]: 570 cells per mm^3
- Monocytes, normalised data (day 1 = 100) [6]: 127
- NK [6]: 40 cells per mm^3
- NK, normalised data (day 1 = 100) [6]: 133
- White count [6]: 8200 cells per mm^3
- White count, normalised data (day 1 = 100) [6]: 146
- % Granulocytes [7]: 75%
- % Granulocytes, normalised data (day 1 = 100) [7]: 109
- % Lymphocytes [7]: 19%
- % Lymphocytes, normalised data (day 1 = 100) [7]: 82
- % Monocytes [7]: 6%
- % Monocytes, normalised data (day 1 = 100) [7]: 75
- CD4 [7]: 75 cells per mm^3
- CD4, normalised data (day 1 = 100) [7]: 94
- CD8 [7]: 880 cells per mm^3
- CD8, normalised data (day 1 = 100) [7]: 100
- Granulocytes [7]: 4950 cells per mm^3
- Granulocytes, normalised data (day 1 = 100) [7]: 128
- Lymphocytes [7]: 1250 cells per mm^3
- Lymphocytes, normalised data (day 1 = 100) [7]: 97
- Monocytes [7]: 400 cells per mm^3
- Monocytes, normalised data (day 1 = 100) [7]: 89
- NK [7]: 75 cells per mm^3
- NK, normalised data (day 1 = 100) [7]: 250
- White count [7]: 6600 cells per mm^3
- White count, normalised data (day 1 = 100) [7]: 118
- % Granulocytes [8]: 74.5%
- % Granulocytes, normalised data (day 1 = 100) [8]: 108
- % Lymphocytes [8]: 20%
- % Lymphocytes, normalised data (day 1 = 100) [8]: 86
- % Monocytes [8]: 5.5%
- % Monocytes, normalised data (day 1 = 100) [8]: 69
- CD4 [8]: 80 cells per mm^3
- CD4, normalised data (day 1 = 100) [8]: 100
- CD8 [8]: 730 cells per mm^3
- CD8, normalised data (day 1 = 100) [8]: 83
- Granulocytes [8]: 4020 cells per mm^3
- Granulocytes, normalised data (day 1 = 100) [8]: 104
- Lymphocytes [8]: 1050 cells per mm^3
- Lymphocytes, normalised data (day 1 = 100) [8]: 81
- Monocytes [8]: 440 cells per mm^3
- Monocytes, normalised data (day 1 = 100) [8]: 98
- NK [8]: 20 cells per mm^3
- NK, normalised data (day 1 = 100) [8]: 67
- White count [8]: 5500 cells per mm^3
- White count, normalised data (day 1 = 100) [8]: 98
- CD4 and CD8 T cells, course after the rise [9]: return to the pre-injection i levels six days later
- rise in CD4 T cells after the HEP1 injection [9]: +50%
- rise in CD8 T cells after the HEP1 injection [9]: +28%
- CD4+ and CD8+ T cells, course (subcutaneous administration of one larger dose of HEP1 (FIG. 3)): sharp increase
